Laboratory results published in ChEMBL document CHEMBL5696439 (Cancer Res, 2010).
Activity calls are given as the source filed them. No cut-off for these calls is given here.

Columns and labels:
[1] = biological target: cGMP-dependent protein kinase 1 (Homo sapiens) (UniProt Q13976); test: Inhibition of recombinant human full length GST-tagged PRKG1 expressed in baculovirus expression system at 2 uM using Ser/Thr 01 as substrate measured after 1 hr by Z'-LYTE assay relative to control
MDA-MB-361 [2] = test: Inhibition of protein synthesis in human MDA-MB-361 cells at 3 micromol/L incubated for 3 hrs by [3H] methionine incorporation based scintillation counter analysis relative to control; assay type: functional; conditions: MDA-MB-361, 3 h, dose 3 µmol/L
[3] = biological target: Mitogen-activated protein kinase 3 (Homo sapiens) (UniProt P27361); test: Inhibition of recombinant human full length GST-tagged MAPK3 expressed in E. coli at 2 uM using Ser/Thr 03 as substrate measured after 1 hr by Z'-LYTE assay relative to control
[4] = test system: Fibroblast growth factor receptor 3 (Homo sapiens), P22607 [K650E]; test: Inhibition of recombinant human His-tagged FGFR3 FGFR3 K650E mutant (398-806 residues) expressed in baculovirus expression system at 2 uM using Tyr 04 as substrate measured after 1 hr by Z'-LYTE assay relative to control
[5] = biological target: Ribosomal protein S6 kinase beta-1 (Homo sapiens) (UniProt P23443); test: Inhibition of recombinant human GST-tagged RPS6KB1 (1-421 residues) expressed in insect cells at 2 uM using Ser/Thr 07 as substrate measured after 1 hr by Z'-LYTE assay relative to control; conditions: Insect cell
[6] = biological target: Serine/threonine-protein kinase pim-1 (Homo sapiens) (UniProt P11309); test: Inhibition of recombinant human full length His-tagged PIM1 expressed in insect cells at 2 uM using Ser/Thr 07 as substrate measured after 1 hr by Z'-LYTE assay relative to control; conditions: Insect cell
MDA-MB-361 [7] = test: Antiproliferative activity against human MDA-MB-361 cells assessed as cell growth inhibition incubated for 1 days by MTS assay; assay type: functional, cell-based; conditions: MDA-MB-361, 24 h
[8] = biological target: Serine/threonine-protein kinase Nek4 (Homo sapiens) (UniProt P51957); test: Inhibition of recombinant human full length GST-tagged NEK4 expressed in insect cells at 2 uM using Ser/Thr 17 as substrate measured after 1 hr by Z'-LYTE assay relative to control; conditions: Insect cell
PC3MM2 = test: Induction of apoptosis in human PC3MM2 cells assessed as reduction in S phase at 1 micromol/L incubated for 24 hrs by FACS analysis; assay type: functional, cell-based; conditions: dose 1.0 µmol/L
[9] = biological target: Mitogen-activated protein kinase kinase kinase kinase 5 (Homo sapiens) (UniProt Q9Y4K4); test: Inhibition of recombinant human full length GST-tagged MAP4K5 expressed in insect cells at 2 uM using Ser/Thr 07 as substrate measured after 1 hr by Z'-LYTE assay relative to control; conditions: Insect cell
[10] = biological target: Ephrin type-A receptor 5 (Homo sapiens) (UniProt P54756); test: Inhibition of recombinant human GST-tagged EPHA5 (595-1037 residues) expressed in insect cells at 2 uM using Tyr 01 as substrate measured after 1 hr by Z'-LYTE assay relative to control; conditions: Insect cell
[11] = biological target: Dual specificity tyrosine-phosphorylation-regulated kinase 4 (Homo sapiens) (UniProt Q9NR20); test: Inhibition of recombinant human full-length GST-tagged DYRK4 expressed in insect cells at 2 uM using Ser/Thr 09 as substrate measured after 1 hr by Z'-LYTE assay relative to control; conditions: Insect cell
MDA-MB-231 = test: Antiproliferative activity against human MDA-MB-231 cells assessed as cell growth inhibition incubated for 24 hrs by MTS assay; assay type: functional, cell-based; conditions: MDA-MB-231, 24 h
[12] = biological target: Calcium/calmodulin-dependent protein kinase type IV (Homo sapiens) (UniProt Q16566); test: Inhibition of recombinant human full-length GST-tagged CAMK4 expressed in E. coli at 2 uM using Ser/Thr 13 as substrate measured after 1 hr by Z'-LYTE assay relative to control
[13] = biological target: Serine/threonine-protein kinase D3 (Homo sapiens) (UniProt O94806); test: Inhibition of recombinant human full length GST-tagged PRKCN expressed in insect cells at 2 uM using Ser/Thr 17 as substrate measured after 1 hr by Z'-LYTE assay relative to control; conditions: Insect cell
[14] = biological target: Receptor tyrosine-protein kinase erbB-2 (Homo sapiens) (UniProt P04626); test: Inhibition of recombinant human His-tagged ERBB2 (676-1255 residues) expressed in insect cells at 2 uM using Tyr 06 as substrate measured after 1 hr by Z'-LYTE assay relative to control; conditions: Insect cell
[15] = biological target: AMP-activated protein kinase (AMPK) alpha-1/beta-1/gamma-1 (Homo sapiens) (UniProt P54619+Q9Y478+Q13131); test: Inhibition of recombinant human full-length GST/His-tagged AMPKalpha1/beta1/gamma1 expressed in insect cells at 2 uM using Ser/Thr 23 as substrate measured after 1 hr by Z'-LYTE assay relative to control; conditions: Insect cell
A549 = test: Induction of apoptosis in human A549 cells assessed as increase in G1 phase at 1 micromol/L incubated for 24 hrs by FACS analysis; assay type: functional, cell-based; conditions: dose 1.0 µmol/L
[16] = biological target: Serine/threonine-protein kinase DCLK2 (Homo sapiens) (UniProt Q8N568); test: Inhibition of recombinant human full-length GST-tagged DCAMKL2 expressed in baculovirus expression system at 2 uM using Ser/Thr 17 as substrate measured after 1 hr by Z'-LYTE assay relative to control
[17] = biological target: Ribosomal protein S6 kinase alpha-2 (Homo sapiens) (UniProt Q15349); test: Inhibition of recombinant human full length GST-tagged RPS6KA2 expressed in insect cells at 2 uM using Ser/Thr 06 as substrate measured after 1 hr by Z'-LYTE assay relative to control; conditions: Insect cell
[18] = biological target: Tyrosine-protein kinase BTK (Homo sapiens) (UniProt Q06187); test: Inhibition of recombinant human full-length His-tagged BTK expressed in insect cells at 2 uM using Tyr 01 as substrate measured after 1 hr by Z'-LYTE assay relative to control; conditions: Insect cell
[19] = biological target: Proto-oncogene tyrosine-protein kinase receptor Ret (Homo sapiens) (UniProt P07949); test: Inhibition of recombinant human GST-tagged RET (658-1114 residues) expressed in insect cells at 2 uM using Tyr 02 as substrate measured after 1 hr by Z'-LYTE assay relative to control; conditions: Insect cell
HT-29 = test: Antitumor activity against human HT-29 cells xenografted in female nude mouse model assessed as suppression in P-AKT at S473 level at 50 mg/kg, iv administered once a week and measured at least 8 hrs by immunoblot analysis; assay type: functional, organism-based
[20] = biological target: Serine/threonine-protein kinase Nek6 (Homo sapiens) (UniProt Q9HC98); test: Inhibition of recombinant human full length GST-tagged NEK6 expressed in insect cells at 2 uM using Ser/Thr 22 as substrate measured after 1 hr by Z'-LYTE assay relative to control; conditions: Insect cell
LNCaP = test: Induction of apoptosis in human LNCaP cells assessed as increase in PARP cleavage at 0.3 to 3 micromol/L incubated for 48 hrs by Western blot analysis; assay type: functional, cell-based; conditions: dose 0.3-3 µmol/L

Dual specificity tyrosine-phosphorylation-regulated kinase 4 (Homo sapiens), sequence (Q9NR20 whole entry): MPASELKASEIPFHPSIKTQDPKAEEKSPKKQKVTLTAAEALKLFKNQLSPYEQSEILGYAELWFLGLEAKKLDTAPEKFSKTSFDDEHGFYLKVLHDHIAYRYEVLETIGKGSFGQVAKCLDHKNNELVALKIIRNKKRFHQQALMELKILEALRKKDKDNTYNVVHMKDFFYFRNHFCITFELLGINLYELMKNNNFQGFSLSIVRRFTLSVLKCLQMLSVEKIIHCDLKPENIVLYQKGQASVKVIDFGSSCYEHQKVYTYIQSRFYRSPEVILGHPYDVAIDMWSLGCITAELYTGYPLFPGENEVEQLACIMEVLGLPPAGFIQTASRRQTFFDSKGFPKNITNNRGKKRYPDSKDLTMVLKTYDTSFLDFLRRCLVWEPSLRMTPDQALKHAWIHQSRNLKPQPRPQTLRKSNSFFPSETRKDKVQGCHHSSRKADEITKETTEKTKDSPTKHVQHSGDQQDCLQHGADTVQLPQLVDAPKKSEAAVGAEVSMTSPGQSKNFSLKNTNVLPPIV
Mitogen-activated protein kinase kinase kinase kinase 5 (Homo sapiens), sequence (Q9Y4K4 whole entry, looked up, the tested form may be a part): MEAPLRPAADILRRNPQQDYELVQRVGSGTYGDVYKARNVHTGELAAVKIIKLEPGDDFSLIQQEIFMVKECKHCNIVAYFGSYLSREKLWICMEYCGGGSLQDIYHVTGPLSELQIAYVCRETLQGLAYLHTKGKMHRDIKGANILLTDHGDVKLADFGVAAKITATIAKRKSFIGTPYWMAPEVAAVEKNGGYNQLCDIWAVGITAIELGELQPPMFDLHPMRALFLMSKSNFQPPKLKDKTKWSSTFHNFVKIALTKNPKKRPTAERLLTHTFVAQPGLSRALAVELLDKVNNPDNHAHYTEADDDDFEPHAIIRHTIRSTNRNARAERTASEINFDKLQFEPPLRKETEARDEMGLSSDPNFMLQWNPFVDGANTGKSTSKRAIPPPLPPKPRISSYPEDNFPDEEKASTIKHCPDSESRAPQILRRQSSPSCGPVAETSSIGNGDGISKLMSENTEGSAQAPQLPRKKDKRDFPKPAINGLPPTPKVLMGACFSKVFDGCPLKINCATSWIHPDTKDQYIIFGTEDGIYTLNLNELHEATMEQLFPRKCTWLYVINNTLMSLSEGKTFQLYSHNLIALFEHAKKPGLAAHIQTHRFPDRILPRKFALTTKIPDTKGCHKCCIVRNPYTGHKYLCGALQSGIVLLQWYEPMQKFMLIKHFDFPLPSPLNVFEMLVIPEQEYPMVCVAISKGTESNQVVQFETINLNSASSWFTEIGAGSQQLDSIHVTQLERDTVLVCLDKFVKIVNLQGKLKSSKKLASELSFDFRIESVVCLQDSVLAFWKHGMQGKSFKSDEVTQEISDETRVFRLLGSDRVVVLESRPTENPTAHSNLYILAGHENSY
Serine/threonine-protein kinase DCLK2 (Homo sapiens), sequence (Q8N568 whole entry): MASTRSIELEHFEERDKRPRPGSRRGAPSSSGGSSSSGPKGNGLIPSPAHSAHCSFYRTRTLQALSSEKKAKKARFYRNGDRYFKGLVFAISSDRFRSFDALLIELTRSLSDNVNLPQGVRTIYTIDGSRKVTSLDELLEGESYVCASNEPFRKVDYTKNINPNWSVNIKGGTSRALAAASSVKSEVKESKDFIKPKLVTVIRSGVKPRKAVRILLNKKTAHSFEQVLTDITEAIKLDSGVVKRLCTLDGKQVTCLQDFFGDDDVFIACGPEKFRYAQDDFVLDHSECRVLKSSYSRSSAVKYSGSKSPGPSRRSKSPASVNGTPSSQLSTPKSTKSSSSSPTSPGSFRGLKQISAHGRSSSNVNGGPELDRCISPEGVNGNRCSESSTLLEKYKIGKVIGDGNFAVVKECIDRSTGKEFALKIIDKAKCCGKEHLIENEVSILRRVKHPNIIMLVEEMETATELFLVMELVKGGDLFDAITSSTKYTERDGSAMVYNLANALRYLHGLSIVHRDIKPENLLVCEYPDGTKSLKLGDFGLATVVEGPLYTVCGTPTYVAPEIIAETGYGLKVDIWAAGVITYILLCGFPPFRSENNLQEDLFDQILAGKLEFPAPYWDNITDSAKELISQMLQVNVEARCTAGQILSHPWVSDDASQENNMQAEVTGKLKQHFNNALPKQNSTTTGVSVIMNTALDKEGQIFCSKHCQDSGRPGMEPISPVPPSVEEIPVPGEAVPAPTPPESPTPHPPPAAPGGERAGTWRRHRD
Serine/threonine-protein kinase pim-1 (Homo sapiens), sequence (P11309 whole entry, looked up): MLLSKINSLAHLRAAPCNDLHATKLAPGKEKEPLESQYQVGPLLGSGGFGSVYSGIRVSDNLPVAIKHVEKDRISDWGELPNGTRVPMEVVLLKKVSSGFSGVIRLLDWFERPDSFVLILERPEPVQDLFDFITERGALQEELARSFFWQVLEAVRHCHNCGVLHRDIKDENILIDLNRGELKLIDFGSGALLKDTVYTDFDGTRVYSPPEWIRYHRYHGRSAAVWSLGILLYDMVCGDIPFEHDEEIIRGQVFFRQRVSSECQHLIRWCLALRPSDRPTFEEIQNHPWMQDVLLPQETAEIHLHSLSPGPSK
Serine/threonine-protein kinase Nek6 (Homo sapiens), sequence (Q9HC98 whole entry): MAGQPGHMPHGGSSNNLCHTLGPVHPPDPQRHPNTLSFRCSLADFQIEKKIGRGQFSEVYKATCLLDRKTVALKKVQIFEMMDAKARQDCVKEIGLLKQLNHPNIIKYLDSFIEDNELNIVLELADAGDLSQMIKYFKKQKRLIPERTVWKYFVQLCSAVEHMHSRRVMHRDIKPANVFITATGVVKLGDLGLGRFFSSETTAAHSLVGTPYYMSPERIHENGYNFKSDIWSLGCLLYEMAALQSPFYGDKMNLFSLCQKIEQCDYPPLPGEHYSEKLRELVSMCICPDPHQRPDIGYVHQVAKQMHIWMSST
Ephrin type-A receptor 5 (Homo sapiens), sequence (P54756 whole entry, the tested form may be a part): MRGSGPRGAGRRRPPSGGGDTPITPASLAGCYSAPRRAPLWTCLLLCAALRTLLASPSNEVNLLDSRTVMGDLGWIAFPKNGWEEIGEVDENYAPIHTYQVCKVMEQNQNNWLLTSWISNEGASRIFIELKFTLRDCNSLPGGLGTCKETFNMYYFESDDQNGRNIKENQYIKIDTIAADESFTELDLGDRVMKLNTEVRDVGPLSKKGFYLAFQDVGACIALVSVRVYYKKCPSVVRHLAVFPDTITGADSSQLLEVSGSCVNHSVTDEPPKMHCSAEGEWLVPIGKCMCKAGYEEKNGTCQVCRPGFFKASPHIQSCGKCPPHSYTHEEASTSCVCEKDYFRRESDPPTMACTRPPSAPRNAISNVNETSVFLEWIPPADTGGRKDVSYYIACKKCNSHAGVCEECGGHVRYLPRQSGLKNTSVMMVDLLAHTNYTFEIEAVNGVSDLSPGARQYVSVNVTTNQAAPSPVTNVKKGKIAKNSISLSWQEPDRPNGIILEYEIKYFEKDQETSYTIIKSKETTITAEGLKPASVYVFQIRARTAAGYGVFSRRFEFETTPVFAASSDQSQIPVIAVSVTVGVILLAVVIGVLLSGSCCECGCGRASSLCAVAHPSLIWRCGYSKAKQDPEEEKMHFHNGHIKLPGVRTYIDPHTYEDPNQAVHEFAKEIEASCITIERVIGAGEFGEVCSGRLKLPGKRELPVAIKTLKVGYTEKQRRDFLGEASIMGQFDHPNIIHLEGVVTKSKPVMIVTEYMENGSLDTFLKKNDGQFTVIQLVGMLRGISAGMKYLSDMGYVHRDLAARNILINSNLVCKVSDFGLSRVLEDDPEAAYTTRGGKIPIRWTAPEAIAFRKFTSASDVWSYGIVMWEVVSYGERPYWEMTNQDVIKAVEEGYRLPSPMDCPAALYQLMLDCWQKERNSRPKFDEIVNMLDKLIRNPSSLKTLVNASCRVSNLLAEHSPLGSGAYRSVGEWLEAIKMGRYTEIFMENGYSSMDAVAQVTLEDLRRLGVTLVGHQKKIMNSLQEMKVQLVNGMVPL
Ribosomal protein S6 kinase beta-1 (Homo sapiens), sequence (P23443 whole entry, looked up, the tested form may be a part): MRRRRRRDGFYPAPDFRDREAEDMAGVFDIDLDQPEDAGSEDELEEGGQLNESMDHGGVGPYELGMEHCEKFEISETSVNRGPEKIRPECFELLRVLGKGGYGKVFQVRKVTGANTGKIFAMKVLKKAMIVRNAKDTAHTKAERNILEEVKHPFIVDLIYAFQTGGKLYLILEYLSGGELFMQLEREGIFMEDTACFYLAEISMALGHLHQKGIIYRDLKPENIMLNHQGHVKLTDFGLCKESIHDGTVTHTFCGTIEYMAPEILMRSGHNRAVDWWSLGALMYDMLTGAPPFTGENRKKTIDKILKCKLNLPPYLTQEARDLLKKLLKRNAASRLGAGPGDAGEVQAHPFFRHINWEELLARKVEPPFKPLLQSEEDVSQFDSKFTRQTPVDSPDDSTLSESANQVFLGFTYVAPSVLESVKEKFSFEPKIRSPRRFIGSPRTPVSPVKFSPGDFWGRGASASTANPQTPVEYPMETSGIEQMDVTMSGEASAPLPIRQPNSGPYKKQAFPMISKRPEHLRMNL
Tyrosine-protein kinase BTK (Homo sapiens), sequence (Q06187 whole entry, the tested form may be a part): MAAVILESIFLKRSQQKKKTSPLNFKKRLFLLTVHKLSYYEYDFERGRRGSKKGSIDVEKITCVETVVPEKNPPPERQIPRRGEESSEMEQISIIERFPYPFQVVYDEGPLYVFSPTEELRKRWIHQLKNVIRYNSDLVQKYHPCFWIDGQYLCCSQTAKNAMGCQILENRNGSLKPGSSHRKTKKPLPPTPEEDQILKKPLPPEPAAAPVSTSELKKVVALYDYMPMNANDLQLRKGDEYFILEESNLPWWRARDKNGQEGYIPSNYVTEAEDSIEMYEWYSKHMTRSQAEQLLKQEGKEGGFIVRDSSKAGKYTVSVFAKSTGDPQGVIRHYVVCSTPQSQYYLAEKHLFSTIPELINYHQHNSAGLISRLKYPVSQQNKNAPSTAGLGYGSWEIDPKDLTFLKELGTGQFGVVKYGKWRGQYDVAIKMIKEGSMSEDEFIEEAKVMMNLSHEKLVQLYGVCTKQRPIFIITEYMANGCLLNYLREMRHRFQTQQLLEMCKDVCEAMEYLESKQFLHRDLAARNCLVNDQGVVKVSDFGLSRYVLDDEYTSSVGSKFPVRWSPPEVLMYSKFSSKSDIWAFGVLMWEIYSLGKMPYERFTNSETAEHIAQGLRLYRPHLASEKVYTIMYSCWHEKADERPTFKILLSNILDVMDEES

Work on `CNC(=O)Nc1ccc(-c2nc(N3CC4CCC(C3)O4)c3cnn(C4CCC5(CC4)OCCO5)c3n2)cc1` yielded an inhibition [1] of 1%, an inhibition at 3 µM (MDA-MB-361 [2]) of about 50% and an inhibition [3] of 1%. For the same compound, the inhibition [4] was 6%, the inhibition [5] was 2% and the inhibition [6] was 1%. For the same compound, the IC50 (MDA-MB-361 [7]) was 20 µM, the inhibition [8] was 7% and the Activity (PC3MM2) was “Active”. It also gave an inhibition [9] of 19%, an inhibition [10] of 2% and an inhibition [11] of 4%. It also gave an IC50 (MDA-MB-231) of 0.06 µM, an inhibition [12] of -1% and an inhibition [13] of 4%. For the same compound, the inhibition [14] was 0%, the inhibition [15] was 5% and the Activity (A549) was “Active”. It also gave an inhibition [16] of 2%, an inhibition [17] of -1% and an inhibition [18] of 3%. The inhibition [19] was 4%, the Activity (HT-29) was “Active” and the inhibition [20] was 12%. For the same compound, the Activity (LNCaP) was “Active”.
